The subject of one data set is COL1A1 promotor. The experiment in a line: COL1A1 promotor single luciferase reporter gene model in LX-2 (LX2-COL) cells. The class given is cell-based, human. Particulars: LX-2 cells treated simultaneously with TGFβ1 and compound; for inhibition at 40 µM: Homo sapiens, read-out: Inhibition Percentage (inhibition rate of COL1A1 promotor's activity in LX2 cells).
Data set [1] in a line: MTT cytotoxicity / cell survival assay. The class given is cell-based. The settings on record: human, HepG2 cells, read-out: CC50 (cytotoxic concentration required to inhibit HepG2 cell growth by 50%). The method, then:
A single luciferase reporter gene detection model was applied to screen the inhibitory effects towards COL1A1 promotor of all target compounds in human hepatic stellate LX-2 cells at the concentration of 40 μM, taking EGCG and compound 1 as the positive controls. The LX2-COL monoclone cell line was treated simultaneously with TGFβ1 and a target compound [13]. The cytotoxicity was determined using MTT assay in HepG2 cells.
The cell survival was evaluated by MTT assay. HepG2 cells were seeded at density of 6 × 10^3 cells/well in 96-well plate. Cells were treated with various concentrations of matrinic derivate until the cells at 50% confluence. After 24 h of incubation, 20 µL of the MTT (5 mg/mL) solution was added into each plate and incubated for 4 h at 37 °C, 5% CO2. Subsequently, the culture supernatant was replaced with 150 µL DMSO to dissolve the formazan crystal. The absorbance at 570 nm was measured using a microplate reader (ELx800, BioTek Instruments, Winooski, VT, USA).

A further data set has as its system COL1A1 protein. As to the kind of experiment: COL1A1 protein level by western blot in LX-2 cells. Format: cell-based. Particulars: Homo sapiens, TGFβ1 2 ng/mL, read-out: COL1A1 protein level inhibition rate. Here is the method: Next, compounds 6i, 6l and 6n were chosen as the key compounds to verify their inhibitory effects against COL1A1. LX-2 cells were stimulated with TGFβ1 (2 ng/mL), and then treated with compounds 6i, 6l and 6n (80 μM) respectively, taking 1 as the control. Their anti-COL1A1 effects were evaluated on RNA level by real-time PCR amplification. […] Then their anti-COL1A1 effects were investigated on the protein level by western blot assays.
(§1) LX-2 cells were cultured as described above. Briefly, cells were washed with phosphate-buffered saline (PBS) and were lysed in radioimmunoprecipitation assay (RIPA) lysis for 30 min in 4 °C; the supernatant was collected after centrifugation at 12,000× g, 4 °C for 15 min. Equal amounts of protein were quantified with Bradford assay, separated by SDS-PAGE and transferred to polyvinylidene difluoride membrane. The membranes were blocked for one hour at room temperature in PBST containing 5% milk and probed with specific first antibodies overnight at room temperature. Membrane was washed 3 times by PBST, followed by horseradish peroxidase-conjugated secondary antibodies and GAPDH. The proteins were visualized using chemiluminescence reagents.
On the technique in general: In western blotting, separated proteins are transferred to a membrane and probed.

The test system of data set [2] is Smad2 / phosphorylated Smad2 (TGFβ/Smad pathway). As to the kind of experiment: Smad2 and p-Smad2 levels by western blot in LX-2 cells. The class given is cell-based, human. The method, then: Considering the key role of TGFβ/Smad pathway in activating COL1A1, the effects of the three compounds on Smad and phosphorylated Smad were then evaluated.
as §1

For the next data set, the system named is α-SMA protein. As to the kind of experiment: α-SMA protein level by western blot in LX-2 cells. Particulars: Homo sapiens, TGFβ1 2 ng/mL, read-out: α-SMA protein level inhibition rate. Format: cell-based. The method, then: (§2) α-SMA is a more commonly recognized indicator for liver fibrosis, and it could be induced by a stimulation of TGFβ1 [22], therefore, the amounts of α-SMA were also evaluated.
as §1

Another data set relates to α-SMA mRNA. The experiment in a line: α-SMA mRNA level by real-time PCR in TGFβ1-stimulated LX-2 cells. Format: cell-based, human. Particulars: 80 μM, TGFβ1 2 ng/mL. The method, then: as §2
LX-2 cells were seeded in 6-well plate, cultured in DMEM, containing 10% fetal bovine serum (FBS) in a 5% CO2 atmosphere at 37 °C. And serum-free culture was required until the cells at 90–95% confluence. After 24 h, cells were treated with TGFβ1 (2 ng/mL) and matrinic derivatives (80 μM) for 24 h. Total RNA from the LX-2 cells was extracted using Trizol reagent, purified by NucleoSpin RNA Clean-up. Reverse transcription was performed with a Transcriptor first strand cDNA synthesis kit. The cDNA was then analysis by ABI 7500 Fast Real-Time PCR System (ThermoFisher Scientific, Singapore) using TaqMan probes of TGFβ1, COL1A1, α-SMA, and GAPDH (sequence reserved by ABI, Foster City, CA ,USA) and FastStart Universal Probe master mix (Roche, Indianapolis, IN, USA).
(Real-time PCR tracks product formation cycle by cycle.)

This note sets out measurements from paper PMC6099493, “Discovery of Matrinic Thiadiazole Derivatives as a Novel Family of Anti-Liver Fibrosis Agents via Repression of the TGFβ/Smad Pathway” (Molecules : A Journal of Synthetic Chemistry and Natural …, 2018).

Structures are written as SMILES. Where a name gives a salt, the structure may show the parent alone.

Regarding `CN(C)c1nnc(CCCC2C3CCCN4CCCC(CN2Cc2ccccc2)C34)s1` (centres unmarked) (as salt: hydrochloride) [Compound 6k, 12-N-Benzyl-3′-(N,N-dimethyl-5-amino-1,3,4-thiadiazol-2-yl)-matrinic propane hydrochloride], the melting point (usually the temperature, or range, at which the solid turns liquid) lay within 189 to 190 °C.
Turning to `O=C(O)CCCC1C2CCCN3CCCC(CN1S(=O)(=O)c1ccc(C(F)(F)F)cc1)C23` (centres unmarked) [Compound 5a], the inhibition (as a rule, the change of the read-out against control, counted positive when it falls) at 40 µM with COL1A1 promotor is -3.7%.
Turning to `O=C(O)CCCC1C2CCCN3CCCC(CN1Cc1ccccc1)C23` (centres unmarked) [Compound 5b, 12-N-Benzyl matrinic acid], the melting point lay within 95 to 96 °C. The inhibition at 40 µM in the data set on COL1A1 promotor is -33.6%.
The compound `Cc1ccc(CN2CC3CCCN4CCCC(C2CCCC(=O)O)C34)cc1` (centres unmarked) [Compound 5c, 12-N-p-Methylbenzyl matrinic acid] gave a melting point of 106 to 108 °C. Also, the inhibition at 40 µM with COL1A1 promotor is -116%.
For `O=C(O)CCCC1C2CCCN3CCCC(CN1Cc1ccc(Br)cc1)C23` (centres unmarked) [Compound 5d, 12-N-p-Bromobenzyl matrinic acid], the melting point lay within 134 to 135 °C. Besides, the inhibition at 40 µM in the data set with COL1A1 promotor turned out to be 6.4%.
Consider `Cc1ccc(S(=O)(=O)N2CC3CCCN4CCCC(C34)C2CCCc2nnc(N)s2)cc1` (centres unmarked) [Compound 6a, 12-N-p-Methlybenzenesulfonyl-3′-(5-amino-1,3,4-thiadiazol-2-yl)-matrinic propane], for which the melting point was 237 °C (dec.). Besides, the CC50 at 24 h in data set [1] was more than 320 µM. For the same compound, the inhibition at 40 µM in the data set on COL1A1 promotor was 21.2%.
In turn, `CNc1nnc(CCCC2C3CCCN4CCCC(CN2S(=O)(=O)c2ccc(C)cc2)C34)s1` (centres unmarked) [Compound 6b, 12-N-p-Mmethlybenzenesulfonyl-3′-(N-methyl-5-amino-1,3,4-thiadiazol-2-yl)-matrinic propane] gave a melting point of 169 to 170 °C. The inhibition at 40 µM in the data set with COL1A1 promotor amounted to 12.8%.
In the case of `Cc1ccc(S(=O)(=O)N2CC3CCCN4CCCC(C34)C2CCCc2nnc(NC(C)C)s2)cc1` (centres unmarked) [Compound 6c, 12-N-p-Methylbenzenesulfonyl-3′-(N-iso-propyl-5-amino-1,3,4-thiadiazol-2-yl)-matrinic propane], the melting point lay within 193 to 194 °C. Moreover, the inhibition at 40 µM with COL1A1 promotor was -84.2%.
As for `Cc1ccc(S(=O)(=O)N2CC3CCCN4CCCC(C34)C2CCCc2nnc(N(C)C)s2)cc1` (centres unmarked) [Compound 6d, 12-N-p-Methylbenzenesulfonyl-3′-(N,N-dimethyl-5-amino-1,3,4-thiadiazol-2-yl)-matrinic propane], the melting point was in the range of 142 to 143 °C. For the same compound, in the data set on COL1A1 promotor, the inhibition at 40 µM was -36.7%.
Consider `Nc1nnc(CCCC2C3CCCN4CCCC(CN2S(=O)(=O)c2ccc(C(F)(F)F)cc2)C34)s1` (centres unmarked) [Compound 6f, 12-N-p-Ttrifluoromethlybenzenesulfonyl-3′-(5-amino-1,3,4-thiadiazol-2-yl)-matrinic propane], for which the melting point is 206 °C (dec.). For the same compound, the inhibition at 40 µM with COL1A1 promotor is -19%.
With `CNc1nnc(CCCC2C3CCCN4CCCC(CN2S(=O)(=O)c2ccc(C(F)(F)F)cc2)C34)s1` (centres unmarked) [Compound 6g, 12-N-p-Trifluoromethlybenzenesulfonyl-3′-(N-methyl-5-amino-1,3,4-thiadiazol-2-yl)-matrinic propane], the melting point was 181 °C (dec.). In addition, the inhibition at 40 µM with COL1A1 promotor came out at 6.1%.
`CN(C)c1nnc(CCCC2C3CCCN4CCCC(CN2S(=O)(=O)c2ccc(C(F)(F)F)cc2)C34)s1` (centres unmarked) [Compound 6h, 12-N-p-Trifluoromethlybenzenesulfonyl-3′-(N,N-dimethyl-5-amino-1,3,4-thiadiazol-2-yl)-matrinic propane] came in with a melting point of 147 to 148 °C. Besides, the inhibition at 40 µM in the data set with COL1A1 promotor is -35.2%.
In the same order, the values of `CNc1nnc(CCCC2C3CCCN4CCCC(CN2Cc2ccccc2)C34)s1` (centres unmarked) [Compound 6j, 12-N-Benzyl-3′-(N-methyl-5-amino-1,3,4-thiadiazol-2-yl)-matrinic propane] are 137 to 138 °C and 29.5%.
As for `CN(C)c1nnc(CCCC2C3CCCN4CCCC(CN2Cc2ccccc2)C34)s1` (centres unmarked) [Compound 6k, 12-N-Benzyl-3′-(N,N-dimethyl-5-amino-1,3,4-thiadiazol-2-yl)-matrinic propane hydrochloride], the inhibition at 40 µM in the data set on COL1A1 promotor came to 15.2%.
For `Cc1ccc(CN2CC3CCCN4CCCC(C2CCCc2nnc(N)s2)C34)cc1` (centres unmarked) [Compound 6l, 12-N-p-Methylbenzyl-3′-(5-amino-1,3,4-thiadiazol-2-yl)-matrinic propane], the melting point was in the range of 167 to 168 °C. In the data set with COL1A1 protein, the inhibition at 80 µM amounted to 99.3%. In data set [2], the “Effect on Smad level” value was “did not affect the Smad level” and the “Effect on phosphorylation level of Smad2 (in words)” value is recorded as “repressed the phosphorylation level of Smad2 significantly”. Besides, the CC50 at 24 h in data set [1] is more than 320 µM. The inhibition at 80 µM with α-SMA protein came out at 93.8%. For the same compound, the “α-SMA mRNA level inhibitory rate” value with α-SMA mRNA is 82.5%. In addition, the inhibition at 40 µM with COL1A1 promotor is 38.7%.
As for `CNc1nnc(CCCC2C3CCCN4CCCC(CN2Cc2ccc(C)cc2)C34)s1` (centres unmarked) [Compound 6m, 12-N-p-Methylbenzyl-3′-(N-methyl-5-amino-1,3,4-thiadiazol-2-yl)-matrinic propane], the melting point lay within 163 to 164 °C. The inhibition at 40 µM in the data set with COL1A1 promotor was -29.6%.
In turn, `Nc1nnc(CCCC2C3CCCN4CCCC(CN2Cc2ccc(Br)cc2)C34)s1` (centres unmarked) [Compound 6o, 12-N-p-Bromobenzyl-3′-(5-amino-1,3,4-thiadiazol-2-yl)-matrinic propane] yielded a melting point of 193 to 194 °C. Also, in the data set with COL1A1 promotor, the inhibition at 40 µM worked out at 7.8%.
With `CC(=O)Nc1nnc(CCCC2C3CCCN4CCCC(CN2S(=O)(=O)c2ccc(C)cc2)C34)s1` (centres unmarked) [Compound 7a, 12-N-p-Methylblenzenesulfonyl-3′-(5-acetylamino-1,3,4-thiadiazol-2-yl)-matrinic propane], the melting point is 273 °C (dec.). Besides, the inhibition at 40 µM in the data set with COL1A1 promotor was determined as 33.9%.
In the same order, the values of `CC(=O)Nc1nnc(CCCC2C3CCCN4CCCC(CN2S(=O)(=O)c2ccc(C(F)(F)F)cc2)C34)s1` (centres unmarked) [Compound 7b, 12-N-p-Trifluoromethlybenzenesulfonyl-3′-(5-acetylamino-1,3,4-thiadiazol-2-yl)-matrinic propane] are 197 °C (dec.) and -6%.
For `CC(=O)Nc1nnc(CCCC2C3CCCN4CCCC(CN2Cc2ccccc2)C34)s1` (centres unmarked) [Compound 7c, 12-N-Benzyl-3′-(5-acetylamino-1,3,4-thiadiazol-2-yl)-matrinic propane], the melting point fell in the range of 188 to 189 °C. For the same compound, the inhibition at 40 µM in the data set with COL1A1 promotor was found to be 12.9%.
Taken in the same sequence, the figures for `CC(=O)Nc1nnc(CCCC2C3CCCN4CCCC(CN2Cc2ccc(C)cc2)C34)s1` (centres unmarked) [Compound 7d, 12-N-p-Methylbenzyl-3′-(5-acetylamino-1,3,4-thiadiazol-2-yl)-matrinic propane] were 226 °C (dec.) and 27%.
In the case of `O=C(O[C@@H]1Cc2c(O)cc(O)cc2O[C@@H]1c1cc(O)c(O)c(O)c1)c1cc(O)c(O)c(O)c1` [EGCG, epigallocatechin gallate, reference compound], the “Inhibition Percentage (inhibition rate of COL1A1 promotor's activity in LX2 cells)” value in the data set on COL1A1 promotor (40 μM) was 27.5% ± 7.9%.
